In patent US10543189B2, “2-acetylnaphtho[2,3-b]furan -4,9-dione for use on treating cancer” (Boston Biomedical, Inc., priority 2013, dated 2020):

Experiments:
[1] = system: cancer cells; test: Antitumor activity of the compound in patient urine; type: cell-based; settings: compound in patient urine tested against cancer cells
[2] = system: β-catenin; test: Immunohistochemistry of CRC patient tumor tissue for β-catenin; type: in vivo, human; settings: FIG. 4A
Protocol: (§1) CRC patient's archival tumor tissue samples were analyzed through immunohistochemistry (IHC) using labeled antibodies against β-catenin. […] For instance, close to 40% of the patients with high nuclear β-catenin levels before treatment survived longer than 100 weeks whereas none of those with high levels of membranous β-catenin survived beyond 25 weeks. This further confirms that the Compound of the Invention disrupts or somehow modulates the β-catenin function, and that the β-catenin pathway is implicated in colorectal cancers.

[3] = Phase I dose escalation trial: pharmacokinetic profile; type: in vivo, human
[4] = system: colorectal cancer (CRC); test: Survival of treated CRC patients by biomarker status or exposure; type: in vivo, human
Description: FIG. 6A depicts the relationship between Progression Free Survival (PFS) and exposure of a Compound of the Invention in colorectal cancer (CRC) patients. […] FIG. 6B depicts the overall survival (OS) in evaluable CRC patients. OS of evaluable CRC patients treated with a Compound of the Invention (defined as ≥4 weeks of Compound of the Invention, 80% compliance) compared with historical controls [Cetuximab for the treatment of colorectal cancer, 2007, N. Engl. J. Med. 357 2040-2048]. FIG. 6C depicts PFS in evaluable CRC patients. PFS of evaluable CRC patients treated with a Compound of the Invention (defined as ≥4 weeks of Compound of the Invention, 80% compliance) compared historical controls (Open-Label Phase III Trial of Panitumumab Plus Best Supportive Care Compared with Best Supportive Care Alone in Patients with Chemotherapy-Refractory Metastatic Colorectal Cancer, 2007, J. Clin. Onc. 25: 1658-1665].
Understanding the clinical relevance of the cancer stemness markers and identifying their predictive response to the Compound of the Invention is used herein to assist clinical development by selecting patients that will most likely to derive clinical benefit. In some embodiments, the methods provided herein use one or more well-known cancer stemness marker(s), such as, for example, the expression of p-STAT3 and/or other cancer stem cell related proteins such as β-catenin and NANOG. All these proteins can be easily detected using any of a variety of art-recognized techniques. In some embodiments, the cancer sternness marker is detected with immunohistochemistry with antibodies. Using the archival tissue samples collected from the phase I trial with the Compound of the Invention, the patient response to the Compound of the Invention was analyzed based on biomarker status. […] A significant improvement in survival was detected for patients with nuclear β-Catenin localization compared with patients having β-catenin localized to the cell membrane, HR=0.043, p value <0.001. As further evidence, in an in vitro study screening a panel of cancer cells, the cell lines with nuclear β-Catenin show a lower IC50 for the Compound of the Invention. […] Thus, STAT3 activation is involved in nuclear β-catenin regulation. In addition, β-catenin status is a biomarker for predicting responsiveness of CRC patients to the Compound of the Invention.
CRC patient's archival tumor tissue samples were analyzed through immunohistochemistry (IHC) using labeled antibodies against phosphorylated STAT3 (p-STAT3). […] For instance, 40% of the patients with high p-STAT3 levels before treatment survived longer than 100 weeks whereas only 10% of those with low or no p-STAT3 levels before treatment survived beyond 100 weeks. This further confirms that the Compound of the Invention downregulates that STAT3 pathway, and that the STAT3 pathway is implicated in colorectal cancers.
as §1

[5] = Phase I dose escalation trial: safety, tolerability, adverse events; type: in vivo, human; settings: Phase 1, dose escalated from 20 mg to 2000 mg/day
Description: The most common adverse events were: diarrhea, nausea, and fatigue. Grade 3 or greater events include: fatigue and diarrhea.

[6] = human, plasma, oral, 20 mg, Total Daily Dose 20 (mg), qd, patient plasma

## CC(=O)c1cc2c(o1)C(=O)c1ccccc1C2=O [Compound 1, 2-acetylnaphtho[2,3-b]furan-4,9-dione]
[1]
  antitumor activity in patient urine: remained potent against cancer cells
[2]
  accumulation of β-catenin in cell nucleus in tumor tissues (IHC): effective in removing or preventing the accumulation of β-catenin in cell nucleus
[3]; 20 mg QD, humans
  clearance from the blood: rapidly cleared from the blood
[3]; 20 mg daily administration
  concentration of the compound in urine of the patient: surprisingly high concentration
[3]; [6]
  AUC: 2.7 µM·h
  Cmax: 490 nM
[3]; human, plasma, oral, 40 mg, Total Daily Dose 40 (mg), qd, patient plasma
  AUC: 3.62 µM·h
[3]; human, plasma, oral, 80 mg, Total Daily Dose 80 (mg), qd, patient plasma
  AUC: 13.3 µM·h
[4]; CRC patients (N=13) with high levels of membranous β-catenin
  patients surviving beyond 25 weeks: none
[4]; CRC patients (N=13) with high nuclear β-catenin levels before treatment
  patients surviving longer than 100 weeks: ~40%
[4]; CRC patients (N=13) with high p-STAT3 levels before treatment
  patients surviving longer than 100 weeks: 40%
[4]; CRC patients (N=13) with low or no p-STAT3 levels before treatment
  patients surviving beyond 100 weeks: 10%
[4]; CRC patients, FIG. 6A
  Progression Free Survival (PFS), plasma concentrations above 2.0 uM for greater than 4 hours versus not reaching that exposure: statistically significant difference
[4]; CRC patients, phase I archival tissue
  survival, high level of p-STAT3 or NANOG versus low or negative levels: trend of increased survival
[4]; CRC patients, phase I archival tissue, p value <0.001
  survival HR, nuclear β-Catenin localization versus β-catenin localized to the cell membrane: 0.043
[5]
  maximum tolerated dose (MTD): not reached
